From ChEMBL document CHEMBL1201862, “PubChem BioAssay data set” (2004)
Activity calls are given as the source filed them.

Legend:
[1] = target: T1, Carboxy-terminal domain RNA polymerase II polypeptide A small phosphatase 1 (Homo sapiens, UniProt Q9GZU7); assay: CTDSP1 inhibitors, concentration-response, biochemical, absorbance readout, ultra-high-throughput screen actives (AID 540297); format: functional
T1 sequence (Q9GZU7 whole entry): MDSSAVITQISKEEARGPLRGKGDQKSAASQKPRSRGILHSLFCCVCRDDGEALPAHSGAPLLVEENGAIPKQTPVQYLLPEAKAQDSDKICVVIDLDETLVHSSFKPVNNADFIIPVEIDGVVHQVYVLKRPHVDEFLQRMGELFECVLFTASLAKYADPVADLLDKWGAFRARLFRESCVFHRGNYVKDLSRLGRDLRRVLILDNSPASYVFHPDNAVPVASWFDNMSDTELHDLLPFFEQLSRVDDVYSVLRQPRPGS

Large T antigen = Large T antigen (Simian virus 40, UniProt P03070); format: functional, Betapolyomavirus macacae;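 also: Confirmatory-stage PubChem screen for compounds that inhibit SV40 T antigen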
[2] = target: T2, Heat shock factor protein 1 (Mus musculus, UniProt P38532); assay: enhancement of HSF1-driven luciferase signal – cell-based, NIH3T3, luminescence, dose retest, confirmation (AID 435004); format: functional;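 also: stress induced by proteasome inhibitor MG132 added 30 min after compound; luciferase reporter driven by HSF1 response element in NIH3T3 cells; actives raise luminescence as potentiators of the MG132 stress response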
T2 sequence (P38532 whole entry): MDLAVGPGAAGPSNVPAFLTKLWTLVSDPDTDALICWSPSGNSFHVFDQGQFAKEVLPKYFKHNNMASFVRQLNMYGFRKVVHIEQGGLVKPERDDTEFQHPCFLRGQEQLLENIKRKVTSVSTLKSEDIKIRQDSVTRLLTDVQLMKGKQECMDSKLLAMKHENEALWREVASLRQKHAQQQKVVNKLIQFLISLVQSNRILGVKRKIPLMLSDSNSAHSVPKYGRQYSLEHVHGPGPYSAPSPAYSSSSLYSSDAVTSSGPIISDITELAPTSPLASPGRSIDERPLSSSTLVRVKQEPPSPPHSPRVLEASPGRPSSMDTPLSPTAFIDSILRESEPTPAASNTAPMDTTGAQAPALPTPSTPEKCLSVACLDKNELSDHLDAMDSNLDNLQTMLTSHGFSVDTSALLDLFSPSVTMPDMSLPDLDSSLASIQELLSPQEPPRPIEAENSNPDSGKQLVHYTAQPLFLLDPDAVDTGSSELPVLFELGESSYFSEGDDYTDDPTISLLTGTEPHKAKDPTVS

Genome polyprotein = Genome polyprotein (dengue virus type 2, UniProt P29990); assay: flavivirus cap methylation enzyme inhibition – biochemical, confirmation dose response, primary screen (AID 588689); format: functional
Cytochrome P450 2C19 = Cytochrome P450 2C19 (Homo sapiens, UniProt P33261); assay: Cytochrome panel assay with activity outcomes. Panel member name: p450-cyp2c19 Compounds with AC50 equal or less than 10 uM are considered active; format: functional; settings: read-out: AC50
Cytochrome P450 3A4 = Cytochrome P450 3A4 (Homo sapiens, UniProt P08684);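 also: CYP3A4 tested as one member of a cytochrome P450 panel screen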
Fatty acid synthase [3] = target: T3, Fatty acid synthase (Homo sapiens, UniProt P49327); assay: inhibition of human FAS-TE enzyme activity – biochemical, endpoint fluorescence intensity, uHTS hits, dose response (AID 624327); format: functional;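 also: fluorescence from hydrolysis of an O-methyl fluorescein acyl ester substrate by the enzyme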
Fatty acid synthase [4] = target: T3, Fatty acid synthase; assay: inhibition of human FAS-TE enzyme activity – biochemical, kinetic fluorescence intensity, dose response (AID 624326); format: functional;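 also: rate of fluorescence rise from hydrolysis of a fluorogenic O-methyl fluorescein ester substrate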
[5] = Luminescence Cell-Based Dose Confirmation HTS to Identify Activators of 5'UTR Stem-Loop Driven Alpha-Synuclein mRNA Translation in H4 Neuroglioblastoma Cells. [Related pubchem assays: 1829 (Project Summary), 1814 (Primary HTS)]; format: functional
[6] = Luminescence Cell-Based Dose Response HTS to Identify Activators of Luciferase Translation or Activity in H4 […] Cells. [Related pubchem assays: 1829 (Project Summary), 1814 (Primary HTS)]; format: functional
H4 = assay: Luminescence Cell-Based Dose Response HTS to Identify Activators of 5'UTR Stem-Loop Driven Prion Protein mRNA Translation in H4 Neuroglioblastoma Cells. [Related pubchem assays: 1829 (Project Summary), 1814 (Primary HTS)]; format: functional; settings: Homo sapiens
Leucine aminopeptidase = target: T4, Leucine aminopeptidase (Plasmodium falciparum 3D7, UniProt Q8IL11); assay: P. falciparum M17LAP inhibitors, primary screen, biochemical, fluorogenic H-Leu-NHMec substrate, 1536-well (AID 1619); format: functional
T4 sequence (Q8IL11 whole entry): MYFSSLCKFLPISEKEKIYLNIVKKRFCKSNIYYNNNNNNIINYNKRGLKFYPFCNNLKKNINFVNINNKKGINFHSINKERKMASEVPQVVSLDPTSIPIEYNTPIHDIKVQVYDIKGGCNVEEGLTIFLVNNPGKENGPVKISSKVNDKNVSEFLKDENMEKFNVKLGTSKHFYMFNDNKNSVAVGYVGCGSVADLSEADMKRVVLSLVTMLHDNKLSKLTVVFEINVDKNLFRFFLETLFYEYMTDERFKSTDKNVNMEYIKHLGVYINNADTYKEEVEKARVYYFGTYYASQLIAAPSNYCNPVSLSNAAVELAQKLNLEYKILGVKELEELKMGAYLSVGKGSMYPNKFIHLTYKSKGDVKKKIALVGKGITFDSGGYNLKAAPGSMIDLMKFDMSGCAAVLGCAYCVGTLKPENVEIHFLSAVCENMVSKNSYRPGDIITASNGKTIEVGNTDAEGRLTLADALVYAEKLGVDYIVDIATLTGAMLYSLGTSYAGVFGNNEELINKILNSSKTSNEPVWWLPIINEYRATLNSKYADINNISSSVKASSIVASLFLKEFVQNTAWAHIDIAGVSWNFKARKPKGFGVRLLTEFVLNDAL

[7] = target: Luciferin 4-monooxygenase (Photinus pyralis, UniProt P08659); assay: inhibition of purified Photinus pyralis luciferase – biochemical, luminescence, dose response (AID 1891)
[8] = Luminescence Cell-Based Dose Confirmation HTS to Identify Inhibitors of Platelet Dense Granule Release. [Related pubchem assays: 1663 (Primary HTS), 1678 (Summary of Project)]; format: functional
[9] = reduction of Shn3 3'UTR-driven luciferase in osteoblasts – cell-based, Clone20 osteoblasts, firefly luciferase, cherry-picked, dose response (AID 624132); format: functional;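 also: firefly luciferase luminescence from reporter carrying the Shn3 3'UTR in osteoblasts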
[10] = non-specific 3'UTR reporter inhibition in Clone20-Shn3RL – cell-based, Renilla luciferase, cherry-picked, counter-screen for Shn3 inhibitor project, dose response (AID 624133); format: functional
[11] = target: T5, Corticotropin-releasing factor receptor 2/Corticotropin-releasing factor-binding protein (Homo sapiens, UniProt P24387+Q13324); assay: Dose Response confirmation of uHTS hits for small molecule antagonists of the CRF-binding protein and CRF-R2 receptor complex.; format: functional; settings: read-out: IC50_Mean
T5 sequence (Q13324 whole entry): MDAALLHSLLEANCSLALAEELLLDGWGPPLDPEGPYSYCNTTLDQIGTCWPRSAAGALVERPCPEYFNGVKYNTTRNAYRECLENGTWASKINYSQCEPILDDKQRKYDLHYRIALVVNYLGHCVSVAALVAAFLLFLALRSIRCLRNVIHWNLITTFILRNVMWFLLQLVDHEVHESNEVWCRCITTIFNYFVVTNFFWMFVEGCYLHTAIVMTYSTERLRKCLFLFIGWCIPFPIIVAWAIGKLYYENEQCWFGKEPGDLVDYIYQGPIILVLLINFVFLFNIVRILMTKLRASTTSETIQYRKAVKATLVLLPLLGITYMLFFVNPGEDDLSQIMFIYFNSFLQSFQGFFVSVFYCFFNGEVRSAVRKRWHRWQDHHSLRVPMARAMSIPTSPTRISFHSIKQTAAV
T5 sequence (P24387 whole entry): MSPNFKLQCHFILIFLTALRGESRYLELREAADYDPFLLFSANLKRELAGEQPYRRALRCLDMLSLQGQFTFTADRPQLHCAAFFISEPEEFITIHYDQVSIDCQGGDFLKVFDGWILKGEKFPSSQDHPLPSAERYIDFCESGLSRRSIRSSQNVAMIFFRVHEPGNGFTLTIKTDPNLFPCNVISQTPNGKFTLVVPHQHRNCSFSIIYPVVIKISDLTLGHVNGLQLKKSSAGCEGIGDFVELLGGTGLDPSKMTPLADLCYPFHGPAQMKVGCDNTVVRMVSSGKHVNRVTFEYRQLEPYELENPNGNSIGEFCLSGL

[12] = target: T5, Corticotropin-releasing factor receptor 2/Corticotropin-releasing factor-binding protein; assay: activators of CRF receptor 2 with binding protein – uHTS hits, confirmation (AID 602473); format: functional; settings: read-out: EC50_Mean
[13] = blockers of HIV-1 envelope-mediated cell-cell fusion – cherry-pick, dose response (AID 652057); format: functional, cell-based
[14] = blockers of HIV-1 ZM109 envelope-driven cell-cell fusion – HeLa effector, CEM target cells, luciferase, cherry-pick, dose response (AID 652058); format: functional, cell-based;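 also: luciferase signal from HIV-1 Env mediated cell-cell fusion of effector and target cells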
[15] = off-target signal loss in HeLa-CEM21 co-culture – HeLa F-luc CTL cells, cherry-picked, counter-screen for HIV-1 Env fusion inhibitor project, dose response (AID 652040); format: functional, cell-based;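 also: potency for signal decrease marking cytotoxic or nonspecific inhibition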
[16] = HIV-1 AD8 envelope cell-cell fusion blockers – cherry-pick, dose response (AID 652062); format: functional, cell-based;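 also: luciferase signal from cell-cell fusion driven by HIV-1 clade B AD8 Env; potency is for inhibitors of fusion seen as a drop in luminescence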
[17] = P. falciparum Dd2 growth inhibitors, dose response, SYBR Green, cherry-picked samples (AID 1159567); format: functional, cell-based

T3 sequence (P49327 whole entry): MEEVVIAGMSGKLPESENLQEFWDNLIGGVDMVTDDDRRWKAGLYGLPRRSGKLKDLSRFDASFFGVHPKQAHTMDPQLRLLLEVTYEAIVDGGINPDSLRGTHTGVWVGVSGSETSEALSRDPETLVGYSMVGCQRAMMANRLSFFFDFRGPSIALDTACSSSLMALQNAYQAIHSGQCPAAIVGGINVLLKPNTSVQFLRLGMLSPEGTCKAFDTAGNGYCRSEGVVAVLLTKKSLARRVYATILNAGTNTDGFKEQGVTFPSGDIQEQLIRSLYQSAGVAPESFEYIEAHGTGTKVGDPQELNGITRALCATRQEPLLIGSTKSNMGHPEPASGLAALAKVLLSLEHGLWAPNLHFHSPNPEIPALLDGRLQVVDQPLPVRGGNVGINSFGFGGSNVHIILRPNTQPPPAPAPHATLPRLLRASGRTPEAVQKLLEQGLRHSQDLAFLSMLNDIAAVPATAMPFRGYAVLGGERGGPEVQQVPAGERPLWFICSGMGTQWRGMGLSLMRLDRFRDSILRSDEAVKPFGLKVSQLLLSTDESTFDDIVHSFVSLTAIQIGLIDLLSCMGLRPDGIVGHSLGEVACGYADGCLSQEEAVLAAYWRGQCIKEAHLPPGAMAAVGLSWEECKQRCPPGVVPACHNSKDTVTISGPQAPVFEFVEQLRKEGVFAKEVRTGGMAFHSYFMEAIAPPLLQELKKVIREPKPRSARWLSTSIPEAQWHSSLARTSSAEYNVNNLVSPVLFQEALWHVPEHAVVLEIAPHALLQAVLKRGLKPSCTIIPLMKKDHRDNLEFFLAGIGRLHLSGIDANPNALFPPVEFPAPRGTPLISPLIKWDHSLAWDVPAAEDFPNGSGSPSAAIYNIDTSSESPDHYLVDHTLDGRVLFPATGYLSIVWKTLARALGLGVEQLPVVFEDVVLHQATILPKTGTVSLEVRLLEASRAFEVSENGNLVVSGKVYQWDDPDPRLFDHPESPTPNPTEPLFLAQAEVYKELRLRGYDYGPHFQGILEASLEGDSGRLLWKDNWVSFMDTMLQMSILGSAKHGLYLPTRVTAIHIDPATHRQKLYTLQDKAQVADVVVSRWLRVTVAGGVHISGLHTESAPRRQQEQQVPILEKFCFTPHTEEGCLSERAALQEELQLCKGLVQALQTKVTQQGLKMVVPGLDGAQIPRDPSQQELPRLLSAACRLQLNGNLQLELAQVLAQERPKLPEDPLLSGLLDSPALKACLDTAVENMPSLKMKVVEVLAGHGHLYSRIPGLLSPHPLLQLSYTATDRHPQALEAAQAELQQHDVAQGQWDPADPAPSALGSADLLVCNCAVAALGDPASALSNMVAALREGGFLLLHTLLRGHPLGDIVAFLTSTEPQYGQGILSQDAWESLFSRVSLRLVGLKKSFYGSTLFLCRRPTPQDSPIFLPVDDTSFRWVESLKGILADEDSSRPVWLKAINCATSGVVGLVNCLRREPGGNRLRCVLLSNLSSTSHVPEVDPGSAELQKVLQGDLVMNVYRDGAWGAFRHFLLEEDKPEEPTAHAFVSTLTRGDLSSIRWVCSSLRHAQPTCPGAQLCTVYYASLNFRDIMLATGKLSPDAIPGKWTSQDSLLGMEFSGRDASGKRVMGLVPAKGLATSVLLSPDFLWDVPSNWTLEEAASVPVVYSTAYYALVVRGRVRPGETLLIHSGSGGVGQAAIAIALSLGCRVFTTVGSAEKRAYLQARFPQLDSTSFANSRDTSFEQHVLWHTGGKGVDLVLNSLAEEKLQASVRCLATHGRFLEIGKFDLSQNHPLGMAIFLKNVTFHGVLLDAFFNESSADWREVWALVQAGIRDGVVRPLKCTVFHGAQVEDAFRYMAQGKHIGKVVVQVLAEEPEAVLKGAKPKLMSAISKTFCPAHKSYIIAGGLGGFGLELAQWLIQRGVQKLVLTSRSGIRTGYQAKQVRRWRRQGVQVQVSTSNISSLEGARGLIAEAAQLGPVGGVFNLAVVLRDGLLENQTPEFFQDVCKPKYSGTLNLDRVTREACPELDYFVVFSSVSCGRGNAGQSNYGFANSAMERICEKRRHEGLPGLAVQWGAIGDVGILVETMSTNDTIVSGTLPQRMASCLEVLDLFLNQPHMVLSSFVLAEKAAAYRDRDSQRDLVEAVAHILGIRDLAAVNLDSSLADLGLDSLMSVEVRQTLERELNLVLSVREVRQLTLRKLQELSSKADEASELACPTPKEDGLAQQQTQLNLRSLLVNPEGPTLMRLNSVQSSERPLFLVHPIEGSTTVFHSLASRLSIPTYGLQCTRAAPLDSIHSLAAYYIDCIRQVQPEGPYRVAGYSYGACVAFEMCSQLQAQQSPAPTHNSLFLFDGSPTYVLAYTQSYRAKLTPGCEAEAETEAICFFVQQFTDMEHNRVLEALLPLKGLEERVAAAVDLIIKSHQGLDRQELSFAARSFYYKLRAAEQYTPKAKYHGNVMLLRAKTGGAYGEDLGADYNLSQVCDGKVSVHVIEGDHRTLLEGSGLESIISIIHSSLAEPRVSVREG
Genome polyprotein, sequence (P29990 2492-3391 limits assumed): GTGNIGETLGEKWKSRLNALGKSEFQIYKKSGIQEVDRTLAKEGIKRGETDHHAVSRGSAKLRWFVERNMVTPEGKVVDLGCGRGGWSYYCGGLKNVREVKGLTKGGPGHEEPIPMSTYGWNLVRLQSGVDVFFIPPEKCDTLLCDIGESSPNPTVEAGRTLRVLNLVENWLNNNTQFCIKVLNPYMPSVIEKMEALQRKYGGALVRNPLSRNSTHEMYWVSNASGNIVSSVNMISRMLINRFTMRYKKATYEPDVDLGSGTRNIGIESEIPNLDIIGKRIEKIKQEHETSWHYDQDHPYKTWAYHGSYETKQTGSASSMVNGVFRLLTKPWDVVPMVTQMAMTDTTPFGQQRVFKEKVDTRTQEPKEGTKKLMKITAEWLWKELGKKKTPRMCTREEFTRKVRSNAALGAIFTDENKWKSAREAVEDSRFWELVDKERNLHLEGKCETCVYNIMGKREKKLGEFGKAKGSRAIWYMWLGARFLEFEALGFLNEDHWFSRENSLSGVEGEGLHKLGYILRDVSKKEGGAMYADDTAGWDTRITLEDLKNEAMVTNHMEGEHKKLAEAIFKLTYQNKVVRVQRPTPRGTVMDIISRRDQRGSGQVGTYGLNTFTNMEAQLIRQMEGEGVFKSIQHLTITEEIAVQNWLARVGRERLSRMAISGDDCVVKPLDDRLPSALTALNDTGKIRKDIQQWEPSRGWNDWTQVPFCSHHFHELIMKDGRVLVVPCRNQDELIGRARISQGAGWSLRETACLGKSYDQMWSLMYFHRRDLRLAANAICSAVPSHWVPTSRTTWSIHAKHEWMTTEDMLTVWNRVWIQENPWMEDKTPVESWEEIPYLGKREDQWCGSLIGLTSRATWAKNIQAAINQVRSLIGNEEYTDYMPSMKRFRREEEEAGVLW
Large T antigen, sequence (P03070 whole entry): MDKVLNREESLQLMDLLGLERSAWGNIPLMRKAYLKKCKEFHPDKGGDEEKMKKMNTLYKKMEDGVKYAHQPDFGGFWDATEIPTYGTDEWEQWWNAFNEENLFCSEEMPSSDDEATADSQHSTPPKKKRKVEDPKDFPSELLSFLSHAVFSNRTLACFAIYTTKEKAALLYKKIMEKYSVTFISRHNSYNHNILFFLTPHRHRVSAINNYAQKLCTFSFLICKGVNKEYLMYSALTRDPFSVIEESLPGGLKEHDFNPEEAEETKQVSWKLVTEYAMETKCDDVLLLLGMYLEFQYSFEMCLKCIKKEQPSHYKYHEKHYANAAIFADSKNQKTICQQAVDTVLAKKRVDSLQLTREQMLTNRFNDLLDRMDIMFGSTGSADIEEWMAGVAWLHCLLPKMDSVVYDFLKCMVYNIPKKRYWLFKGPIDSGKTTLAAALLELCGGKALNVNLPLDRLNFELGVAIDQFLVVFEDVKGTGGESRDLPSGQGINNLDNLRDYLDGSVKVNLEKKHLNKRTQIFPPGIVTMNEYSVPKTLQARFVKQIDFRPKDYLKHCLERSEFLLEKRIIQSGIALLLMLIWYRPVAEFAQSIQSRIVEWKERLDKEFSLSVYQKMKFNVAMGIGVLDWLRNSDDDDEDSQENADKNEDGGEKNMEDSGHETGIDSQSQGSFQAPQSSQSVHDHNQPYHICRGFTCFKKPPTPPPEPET
Luciferin 4-monooxygenase, sequence (P08659 whole entry): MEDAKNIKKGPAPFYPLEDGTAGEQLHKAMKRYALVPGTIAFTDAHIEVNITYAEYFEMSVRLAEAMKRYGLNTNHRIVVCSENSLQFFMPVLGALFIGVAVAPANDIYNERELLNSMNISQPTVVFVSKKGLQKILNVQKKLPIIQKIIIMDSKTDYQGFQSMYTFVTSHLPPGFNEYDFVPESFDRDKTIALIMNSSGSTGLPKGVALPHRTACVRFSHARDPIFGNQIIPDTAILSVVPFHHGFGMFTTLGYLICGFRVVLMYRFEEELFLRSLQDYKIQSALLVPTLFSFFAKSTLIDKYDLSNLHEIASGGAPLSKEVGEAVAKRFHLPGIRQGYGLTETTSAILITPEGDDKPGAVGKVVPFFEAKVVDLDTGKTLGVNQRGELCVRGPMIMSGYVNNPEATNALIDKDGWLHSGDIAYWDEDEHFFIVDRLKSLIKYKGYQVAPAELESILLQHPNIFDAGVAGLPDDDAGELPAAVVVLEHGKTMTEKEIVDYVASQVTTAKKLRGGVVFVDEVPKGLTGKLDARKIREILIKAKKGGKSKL

O=C(CCN1C(=O)/C(=C/c2ccc(Cl)cc2)SC1=S)Nc1cccc(C(=O)O)c1
IC50 [1]: 4.43 µM (active)

O=C(CS(=O)(=O)c1ccccc1)c1cc2cc(F)ccc2oc1=O
IC50 (Large T antigen): 62.8 µM (active) | EC50 [2]: > 260 µM (inactive) | IC50 (Genome polyprotein): > 100 µM (active)

CCc1ccc(NC(=O)C[S+]([O-])CC(=O)NCCCc2ccccc2)cc1 (configuration not stated)
AC50 (Cytochrome P450 2C19): 11.2 µM (inconclusive) | IC50 [1]: 7.62 µM (active) | AC50 (Cytochrome P450 3A4): 2.82 µM (inconclusive)

COc1ccccc1/C=C(\NC(=O)c1ccc(OC)c(OC)c1)C(=O)Nc1cccc([N+](=O)[O-])c1
IC50 (Fatty acid synthase [3]): 11.9 µM (active) | IC50 (Fatty acid synthase [4]): 16 µM (active)

COc1ccc(OC)c(S(=O)(=O)ON2C(=O)c3ccccc3C2=O)c1
EC50 [5]: > 120 µM (not active) | EC50 [6]: > 120 µM (not active) | EC50 (H4): > 120 µM (not active) | IC50 (Fatty acid synthase [3]): 3.72 µM (active) | IC50 (Fatty acid synthase [4]): 3.19 µM (active)

CCOC(=O)c1c(-c2ccc(C)c(C)c2)csc1NC(=O)C1CC=CCC1C(=O)O (configuration not stated)
IC50 (Leucine aminopeptidase): 10.3 µM (active) | IC50 (Genome polyprotein): 43.5 µM (active)

C=CCNc1nc(C(=O)OCC(=O)c2cccc(Br)c2)cs1
IC50 [1]: 4 µM (active)

Cc1nc2sc(C(=O)c3ccccc3)c(N)c2c2c1CCCC2
EC50 [5]: > 120 µM (not active) | EC50 [6]: 6.25 µM (active) | EC50 (H4): 10.5 µM (active) | EC50 [7]: > 112 µM (not active) | EC50 [8]: > 112 µM (not active)

C[C@@H]1CC=C[C@@H]2[C@H]1C(=O)N(Cc1ccccc1)[C@H]2c1cccc(C#Cc2ccccc2)c1
IC50 [1]: 20 µM (active)

Cc1cc(=O)oc2c3c(cc(OCC(=O)Nc4ccc(CCO)cc4)c12)OC(C)(C)CC3
AC50 [9]: > 70 µM (inactive) | AC50 [10]: > 70 µM (inactive)

COc1cccc(/C=C2\Oc3cc(OCC(=O)N4Cc5ccccc5C[C@H]4C(=O)O)ccc3C2=O)c1
IC50 (Genome polyprotein): 43.4 µM (active)

Cc1nc2nc(-c3cccs3)cn2nc1C
IC50 (Genome polyprotein): 17.6 µM (active)

CCCC12CN(C(=O)c3ccc([N+](=O)[O-])cc3)CC(C)(CN(C(=O)c3ccc([N+](=O)[O-])cc3)C1)C2=O
IC50 [11]: > 47.1 µM (inactive) | EC50 [12]: > 53 µM (inactive) | IC50 (Fatty acid synthase [3]): 9.85 µM (active) | IC50 (Fatty acid synthase [4]): 12.9 µM (active)

N#C/C(=C\c1c(N2CCC(C(N)=O)CC2)nc2ccccn2c1=O)S(=O)(=O)c1ccc(Cl)cc1
IC50 (Fatty acid synthase [3]): 17.1 µM (active) | IC50 (Fatty acid synthase [4]): 6.07 µM (active)

CCS(=O)(=O)c1ccc(-c2csc(-c3ccccc3)n2)c(Cl)c1Cl
IC50 (Fatty acid synthase [3]): 1.21 µM (active) | IC50 (Fatty acid synthase [4]): 0.907 µM (active)

O=[N+]([O-])c1ccc(-c2c[nH]c(SCc3ccccc3Cl)n2)cc1
EC50 [5]: > 120 µM (not active) | EC50 [6]: 18.9 µM (active) | EC50 (H4): 17.5 µM (active)

COc1ccc([N+](=O)[O-])cc1NC(=O)C(C)NNC(=O)c1cccc([N+](=O)[O-])c1 (configuration not stated)
IC50 (Fatty acid synthase [3]): 12.7 µM (active) | IC50 (Fatty acid synthase [4]): 10.7 µM (active)

C=CCn1c(=S)[nH]c2cc(C(=O)N3CCN(c4ccccc4OC)CC3)ccc2c1=O
IC50 (Fatty acid synthase [3]): 17.6 µM (active) | IC50 (Fatty acid synthase [4]): 32.9 µM (inactive)

CC1(Cc2ccc(Cl)cc2)C(=O)Nc2ccc(S(=O)(=O)NC3CCCCC3)cc21 (configuration not stated)
AC50 [13]: 0.396 µM (active) | AC50 [14]: 1.12 µM (active) | AC50 [15]: 1.04 µM (active) | AC50 [16]: 0.674 µM (active)

CCCCCCN1C[C@H](n2cc(-c3ccc(F)cc3)nn2)[C@@H](O)C[C@@H]1c1ccc(Cl)cc1
AC50 [9]: 10.3 µM (active) | AC50 [10]: 25.8 µM (active)

O=C(CN1C(=O)NC2(CCCCCC2)C1=O)Nc1ccc(Cl)c([N+](=O)[O-])c1
IC50 (Fatty acid synthase [3]): 8.92 µM (active) | IC50 (Fatty acid synthase [4]): 5.92 µM (active)

COC(=O)C1(C(=O)OC)C[C@H](c2ccc(OC)cc2)N(Cc2ccccc2OC)[C@@H]1c1ccccc1
AC50 [13]: 1.37 µM (active) | AC50 [14]: 1.58 µM (active) | AC50 [15]: 2.48 µM (active) | AC50 [16]: 8.22 µM (active)

CCCNC(=O)N1CCC2(CC1)CN(Cc1ccc(F)cc1)[C@@H](CO)c1[nH]c3cc(OC)ccc3c12
AC50 [17]: 5.11 µM (active)

COc1ccc(CN2CC3(CN(C(=O)Cc4ccccc4)C3)c3c([nH]c4cc(OC)ccc34)[C@H]2CO)cc1
AC50 [17]: 6.52 µM (active)

C[N+]1(C)CCc2cc3c(cc2[C@H]1[C@@H]1OC(=O)c2c1ccc1c2OCO1)OCO3
IC50 [1]: 3.48 µM (active)
